Values of other authors in patent publication US7452871B2, “Compositions and methods for treating mammals with modified alginates and modified pectins” (EcoNugenics, Inc., priority 1999, dated 2008).

Columns and labels:
[1] = rats
[2] = rats; remark: listed apart in the source
cancer metastasis = details: modified citrus pectin: oral administration

Row | Substance | cholesterol excretion [1] | blood glucose levels after glucose administration [2] | suppressing or preventing metastases (cancer metastasis)
1 | AG-10 | enhanced cholesterol secretion | inhibited blood glucose levels from rising | –
2 | AG-270 | enhanced cholesterol secretion | inhibited blood glucose levels from rising | –
3 | modified citrus pectin | – | – | may be effective in suppressing or preventing metastases
